From patent publication US11168102B1, “Bicyclic heteroaryl compounds and uses thereof” (Revolution Medicines, Inc., priority 2019, dated 2021) come the findings set out here.

pIC50: −log10 of the molar value.

The test system of the first experiment is cellular pERK in PC-9 cells (EGFR Ex19Del). In words: Potency assay: pERK (AlphaLISA SureFire Ultra p-ERK1/2) in PC-9 cells. To be noted: Homo sapiens, PC-9, 1 h, PC-9 cells (EGFR Ex19Del), 1 hour incubation, AlphaLISA SureFire Ultra p-ERK1/2; read-out: SOS1 pERK IC50. It counts as cell-based.
For `C[C@@H](Nc1ncnc2c1cc(C1=CCS(=O)(=NC#N)CC1)c(=O)n2C)c1cccc(C(F)F)c1F` (single isomer, unassigned) [Example 45], the negative-log IC50 (pIC50) was 7.54.
Still for that read-out and setting: under `COC1(c2cc3c(N[C@H](C)c4cccc(C(F)F)c4F)ncnc3n(C)c2=O)CCS(=N)(=O)CC1` (single isomer, unassigned) [Example 49] stands 7.12; under `CN=S1(=O)CCC(F)(c2cc3c(N[C@H](C)c4cccc(C(F)F)c4F)ncnc3n(C)c2=O)CC1` (single isomer, unassigned) [Example 51], 7.39; under `COC1(c2cc3c(N[C@H](C)c4cccc(C(F)F)c4F)ncnc3n(C)c2=O)CC(N(C)C(C)=O)C1` (stereo in doubt) [Example 32-40], 6.42.
Still for that read-out and setting: with `C[C@@H](Nc1ncnc2c1cc(C1=CCCNC1)c(=O)n2C)c1cccc(C(F)F)c1F` [Example 1-4] the figure was 7.37; with `C[C@@H](Nc1ncnc2c1cc(C1=CCCOC1)c(=O)n2C)c1cccc(C(F)F)c1F` [Example 1-6], 6.74; with `CC(=O)N1CC=C(c2cc3c(N[C@H](C)c4cccc(C(F)F)c4F)ncnc3n(C)c2=O)CC1` [Example 1-16], 6.92.
On the same count and under the same terms, under `CC(=O)N1CC=C(c2cc3c(N[C@H](C)c4cccc(C(C)(F)F)c4F)ncnc3n(C)c2=O)CC1` [Example 1-20] stands 7.11.
For the molecule `C[C@@H](Nc1ncnc2c1cc(C1=CCN(C3COC3)CC1)c(=O)n2C)c1cccc(C(F)F)c1F` [Example 1-22], the pIC50 is 6.38.
Consider `CC(=O)N1CC=C(c2cc3c(N[C@H](C)c4cccc(C(F)(F)F)c4F)ncnc3n(C)c2=O)CC1` [Example 1-24], for which the pIC50 was 6.97.
On the same count and under the same terms, under `C[C@@H](Nc1ncnc2c1cc(C1=CCN(CC(F)(F)F)CC1)c(=O)n2C)c1cccc(C(F)F)c1F` [Example 1-27] stands 6.50; under `C[C@@H](Nc1ncnc2c1cc(C1CCNCC1)c(=O)n2C)c1cccc(C(F)F)c1F` [Example 1-28], 6.90; under `Cc1nc(N[C@H](C)c2cccc(C(F)F)c2F)c2cc(C3CCNCC3)c(=O)n(C)c2n1` [Example 1-31], 6.25.
On to `C[C@@H](Nc1ncnc2c1cc(C1=CC[P@](C)(=O)CC1)c(=O)n2C)c1cccc(C(F)F)c1F` [Example 1-32], for which the pIC50 is 7.03.
Still for that read-out and setting: with `C[C@@H](Nc1ncnc2c1cc(C1=CC[P@@](C)(=O)CC1)c(=O)n2C)c1cccc(C(F)F)c1F` [Example 1-33] the figure was 6.70; with `C[C@@H](Nc1ncnc2c1cc(N1CCOCC1)c(=O)n2C)c1cccc(C(F)(F)CO)c1` [Example 2, (R)-4-((1-(3-(1,1-difluoro-2-hydroxyethyl)phenyl)ethyl)amino)-8-methyl-6-morpholinopyrido[2,3-d]pyrimidin-7(8H)-one], 7.22.
Regarding `Cc1nc(N[C@H](C)c2cccc(C(F)F)c2F)c2cc(N3CCOCC3)c(=O)n(C)c2n1` [Example 2-1], the pIC50 is 6.95.
The same measure, in the same setting: with `Cc1nc(N[C@H](C)c2cccc(C(F)(F)CO)c2)c2cc(C3=CCOCC3)c(=O)n(C)c2n1` [Example 3, (R)-4-((1-(3-(1,1-difluoro-2-hydroxyethyl)phenyl)ethyl)amino)-6-(3,6-dihydro-2H-pyran-4-yl)-2,8-dimethylpyrido[2,3-d]pyrimidin-7(8H)-one] the figure was 7.10; with `Cc1nc(N[C@H](C)c2cccc(C(F)(F)CO)c2)c2cc(C3=CCNCC3)c(=O)n(C)c2n1` [Example 4, (R)-4-((1-(3-(1,1-difluoro-2-hydroxyethyl)phenyl)ethyl)amino)-2,8-dimethyl-6-(1,2,3,6-tetrahydropyridin-4-yl)pyrido[2,3-d]pyrimidin-7(8H)-one], 6.32; with `C[C@@H](Nc1ncnc2c1cc(C1=CCOCC1)c(=O)n2C)c1cccc(C(F)(F)F)c1` [Example 5, (R)-6-(3,6-dihydro-2H-pyran-4-yl)-8-methyl-4-((1-(3-(trifluoromethyl)phenyl)ethyl)amino)pyrido[2,3-d]pyrimidin-7(8H)-one], 6.87.
Still for that read-out and setting: under `Cc1nc(N[C@H](C)c2cc(N)cc(C(F)(F)F)c2)c2cc(C3=CCNCC3)c(=O)n(C)c2n1` [Example 6, 4-[[(1R)-1-[3-amino-5-(trifluoromethyl)phenyl]ethyl]amino]-2,8-dimethyl-6-(1,2,3,6-tetrahydropyridin-4-yl)pyrido[2,3-d]pyrimidin-7-one] stands 6.73; under `Cc1nc(N[C@H](C)c2cc(N)cc(C(F)(F)F)c2)c2cc(C3=CCOCC3)c(=O)n(C)c2n1` [Example 7, (R)-4-((1-(3-amino-5-(trifluoromethyl)phenyl)ethyl)amino)-6-(3,6-dihydro-2H-pyran-4-yl)-2,8-dimethylpyrido[2,3-d]pyrimidin-7(8H)-one], 7.14; under `Cc1nc(N[C@H](C)c2cc(N)cc(C(F)(F)F)c2)c2cc(C3CCNCC3)c(=O)[nH]c2n1` [Example 8, (R)-4-((1-(3-amino-5-(trifluoromethyl)phenyl)ethyl)amino)-2-methyl-6-(piperidin-4-yl)pyrido[2,3-d]pyrimidin-7(8H)-one], 5.67.
Still for that read-out and setting: under `C[C@@H](Nc1ncnc2c1cc(-c1ccccc1)c(=O)n2C)c1cccc(C(F)F)c1F` [Example 21-13] stands 6.31; under `C[C@@H](Nc1ncnc2c1cc(-c1ccncc1)c(=O)n2C)c1cccc(C(F)F)c1F` [Example 21-14], 6.92.
In the case of `C[C@@H](Nc1ncnc2c1cc(-c1cccnc1)c(=O)n2C)c1cccc(C(F)F)c1F` [Example 21-15], the pIC50 was 6.67.
`C[C@@H](Nc1ncnc2c1cc(C1=CC[S+]([O-])CC1)c(=O)n2C)c1cccc(C(F)F)c1F` (stereo partly drawn) [Example 22, 4-(((R)-1-(3-(difluoromethyl)-2-fluorophenyl)ethyl)amino)-8-methyl-6-(1-oxido-3,6-dihydro-2H-thiopyran-4-yl)pyrido[2,3-d]pyrimidin-7(8H)-one]: the pIC50 was 6.91.
With `C[C@@H](Nc1ncnc2c1cc(C1=CCS(=N)(=O)CC1)c(=O)n2C)c1cccc(C(F)F)c1F` (stereo partly drawn) [Example 23, 4-(((R)-1-(3-(difluoromethyl)-2-fluorophenyl)ethyl)amino)-6-(1-imino-1-oxido-1,2,3,6-tetrahydro-1λ^6-thiopyran-4-yl)-8-methylpyrido[2,3-d]pyrimidin-7(8H)-one], the pIC50 is 7.31.

Staying with this experiment, now noted: PC-9 cells (EGFR Ex19Del), 1 hour incubation, AlphaLISA SureFire Ultra p-ERK1/2; read-out: SOS1 pERK IC50.
Consider `C[C@@H](Nc1ncnc2c1cc(C1=CCS(=O)(=NC#N)CC1)c(=O)n2C)c1cccc(C(F)F)c1F` (single isomer, unassigned) [Example 46], for which the pIC50 is 7.36.
`COC1(c2cc3c(N[C@H](C)c4cccc(C(F)F)c4F)ncnc3n(C)c2=O)CCS(=N)(=O)CC1` (single isomer, unassigned) [Example 50]: the negative-log IC50 (pIC50) was 6.95.
With `CC(=O)N1CCC2(c3cc4c(N[C@H](C)c5cccc(C(F)F)c5F)ncnc4n(C)c3=O)CC2C1` (single isomer, unassigned) [Example 54-1], the negative-log IC50 (pIC50) was 7.27.
As to `C[C@@H](Nc1ncnc2c1cc(C13CCOCC1C3)c(=O)n2C)c1cccc(C(F)F)c1F` (single isomer, unassigned) [Example 54-2], the pIC50 is 7.08.
On the same count and under the same terms, with `C[C@@H](Nc1ncnc2c1cc(C13CCOCC1C3)c(=O)n2C)c1cccc(C(F)F)c1F` (single isomer, unassigned) [Example 54-3] the figure was 6.42.
On the same count and under the same terms, with `CC(=O)N1CCC2(c3cc4c(N[C@H](C)c5cccc(C(F)F)c5F)ncnc4n(C)c3=O)CC2C1` (single isomer, unassigned) [Example 54-4] the figure was 6.52.
On the same count and under the same terms, under `C[C@@H](Nc1ncnc2c1cc(C1(F)CCC3(CC1)CS(=O)(=NC1CC1)C3)c(=O)n2C)c1cccc(C(F)F)c1F` (single isomer, unassigned) [Example 56-1] stands 6.92; under `C[C@@H](Nc1ncnc2c1cc(C1(F)CCC3(CC1)CS(=O)(=NC1CC1)C3)c(=O)n2C)c1cccc(C(F)F)c1F` (single isomer, unassigned) [Example 56-2], 6.53; under `C[C@@H](Nc1ncnc2c1cc(C1(F)CCC3(CC1)CS(=O)(=NC1CC1)C3)c(=O)n2C)c1cccc(C(F)F)c1F` (single isomer, unassigned) [Example 56-3], 7.06.
Regarding `C[C@@H](Nc1ncnc2c1cc(C1(C#N)CCC3(CC1)CS(=O)(=NC1CC1)C3)c(=O)n2C)c1cccc(C(F)F)c1F` (single isomer, unassigned) [Example 58-1], the negative logarithm of the IC50 (pIC50) was 6.41.
The same measure, in the same setting: with `C[C@@H](Nc1ncnc2c1cc(C1(C#N)CCC3(CC1)CS(=O)(=NC1CC1)C3)c(=O)n2C)c1cccc(C(F)F)c1F` (single isomer, unassigned) [Example 58-2] the figure was 7.25.
The same measure, in the same setting: with `C[C@@H](Nc1ncnc2c1cc(C1(C#N)CCS(=O)(=NC3CC3)CC1)c(=O)n2C)c1cccc(C(F)F)c1F` (single isomer, unassigned) [Example 58] the figure was 6.57; with `C[C@@H](Nc1ncnc2c1cc(C1CCS(=O)(=NC3CC3)CC1)c(=O)n2C)c1cccc(C(F)F)c1F` (single isomer, unassigned) [Example 64-1], 7.58; with `C[C@@H](Nc1ncnc2c1cc(C1CCS(=O)(=NC3CC3)CC1)c(=O)n2C)c1cccc(C(F)F)c1F` (single isomer, unassigned) [Example 64-2], 6.31.
In the case of `CN=S1(=O)CCC(c2cc3c(N[C@H](C)c4cccc(C(F)F)c4F)ncnc3n(C)c2=O)CC1` (single isomer, unassigned) [Example 64-3], the negative logarithm of the IC50 (pIC50) is 7.23.
Same read-out and setting: with `CN=S1(=O)CCC(c2cc3c(N[C@H](C)c4cccc(C(F)F)c4F)ncnc3n(C)c2=O)CC1` (single isomer, unassigned) [Example 64] the figure was 6.88; with `COC1(c2cc3c(N[C@H](C)c4cccc(C(F)F)c4F)ncnc3n(C)c2=O)CCS(=O)(=NC2CC2)CC1` (single isomer, unassigned) [Example 68], 6.70; with `COC1(c2cc3c(N[C@H](C)c4cccc(C(F)F)c4F)ncnc3n(C)c2=O)CCS(=O)(=NC2CC2)CC1` (single isomer, unassigned) [Example 69], 7.03.

The pIC50 is −log10 of the IC50, conventionally taken in molar units.
